According to ChEMBL document CHEMBL1201862, “PubChem BioAssay data set” (2004):
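All cell lines were grown in 96-well plates and treated with compound for 48 hours. At the GI50, growth is halved.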 The source made the active and inactive calls. Rule as the data show it: active = GI50 up to about 1.1 µM and inactive = higher.

Key:
Assay in all cases: growth of human tumour cells (NCI), 48 h
[1] = tested on: SW-620
[2] = tested on: COLO 205
[3] = tested on: OVCAR-5
[4] = tested on: MDA-MB-435
[5] = tested on: RPMI-8226
[6] = tested on: SF-539
[7] = tested on: OVCAR-4
[8] = tested on: UO-31
[9] = tested on: DU-145
[10] = tested on: BT-549
[11] = tested on: SR
[12] = tested on: NCI-H226
[13] = tested on: PC-3
[14] = tested on: SK-MEL-2
[15] = tested on: MCF7
[16] = tested on: KM12
[17] = tested on: MOLT-4
[18] = tested on: HOP-92
[19] = tested on: UACC-257
[20] = tested on: OVCAR-8
[21] = tested on: NCI/ADR-RES
[22] = tested on: T47D
[23] = tested on: UACC-62
[24] = tested on: OVCAR-3
[25] = tested on: A549
[26] = tested on: ACHN
[27] = tested on: M14
[28] = tested on: RXF 393
[29] = tested on: SNB-75
[30] = tested on: SNB-19
[31] = tested on: EKVX
[32] = tested on: SK-MEL-28
[33] = tested on: SN12C
[34] = tested on: LOX IMVI
[35] = tested on: K562
[36] = tested on: HCC 2998
[37] = tested on: HT-29
[38] = tested on: MDA-MB-231
[39] = tested on: CCRF-CEM
[40] = tested on: NCI-H460
[41] = tested on: HOP-62
[42] = tested on: SF-295
[43] = tested on: A498
[44] = tested on: NCI-H23
[45] = tested on: HCT-116
[46] = tested on: SK-MEL-5
[47] = tested on: CAKI-1
[48] = tested on: IGROV-1
[49] = tested on: HCT-15
[50] = tested on: 786-0
[51] = tested on: U-251
[52] = tested on: MDA-N
[53] = tested on: Malme-3M
[54] = tested on: SF-268
[55] = tested on: TK-10
[56] = tested on: HL-60
[57] = tested on: NCI-H522
[58] = tested on: SK-OV-3
[59] = tested on: Hs-578T

O=P1(Oc2ccccc2)NCc2ncccc2O1 (stereo unspecified)
GI50 [1]: > 100 µM (inactive)
GI50 [2]: > 100 µM (inactive)
GI50 [3]: > 100 µM (inactive)
GI50 [4]: > 100 µM (inactive)
GI50 [5]: > 100 µM (inactive)
GI50 [6]: > 100 µM (inactive)
GI50 [7]: > 100 µM (inactive)
GI50 [8]: > 100 µM (inactive)
GI50 [9]: > 100 µM (inactive)
GI50 [10]: > 100 µM (inactive)
GI50 [11]: > 100 µM (inactive)
GI50 [12]: > 100 µM (inactive)
GI50 [13]: > 100 µM (inactive)
GI50 [14]: > 100 µM (inactive)
GI50 [15]: > 100 µM (inactive)
GI50 [16]: > 100 µM (inactive)
GI50 [17]: > 100 µM (inactive)
GI50 [18]: > 100 µM (inactive)
GI50 [19]: > 100 µM (inactive)
GI50 [20]: > 100 µM (inactive)
GI50 [21]: > 100 µM (inactive)
GI50 [22]: > 100 µM (inactive)
GI50 [23]: > 100 µM (inactive)
GI50 [24]: > 100 µM (inactive)
GI50 [25]: > 100 µM (inactive)
GI50 [26]: > 100 µM (inactive)
GI50 [27]: > 100 µM (inactive)
GI50 [28]: > 100 µM (inactive)
GI50 [29]: > 100 µM (inactive)
GI50 [30]: > 100 µM (inactive)
GI50 [31]: > 100 µM (inactive)
GI50 [32]: > 100 µM (inactive)
GI50 [33]: > 100 µM (inactive)
GI50 [34]: > 100 µM (inactive)
GI50 [35]: > 100 µM (inactive)
GI50 [36]: > 100 µM (inactive)
GI50 [37]: > 100 µM (inactive)
GI50 [38]: > 100 µM (inactive)
GI50 [39]: > 100 µM (inactive)
GI50 [40]: > 100 µM (inactive)
GI50 [41]: > 100 µM (inactive)
GI50 [42]: > 100 µM (inactive)
GI50 [43]: > 100 µM (inactive)
GI50 [44]: > 100 µM (inactive)
GI50 [45]: > 100 µM (inactive)
GI50 [46]: > 100 µM (inactive)
GI50 [47]: > 100 µM (inactive)
GI50 [48]: > 100 µM (inactive)
GI50 [49]: > 100 µM
GI50 [50]: > 100 µM (inactive)
GI50 [51]: > 100 µM (inactive)
GI50 [52]: > 100 µM (inactive)

Cc1ccc2c(=O)cc(-c3cccc(F)c3)[nH]c2n1
GI50 [1]: 0.0251 µM (active)
GI50 [2]: 0.0224 µM (active)
GI50 [3]: 0.0564 µM (active)
GI50 [53]: 0.0379 µM (active)
GI50 [4]: 0.0111 µM (active)
GI50 [5]: 0.0397 µM (active)
GI50 [6]: 0.0728 µM (active)
GI50 [7]: 1.61 µM (inactive)
GI50 [9]: 0.0504 µM (active)
GI50 [10]: 0.0348 µM (active)
GI50 [11]: 0.0224 µM (active)
GI50 [12]: 0.0336 µM (active)
GI50 [13]: 0.0327 µM (active)
GI50 [14]: 0.0398 µM (active)
GI50 [15]: 0.0334 µM (active)
GI50 [16]: 0.022 µM (active)
GI50 [17]: 0.0542 µM (active)
GI50 [18]: 0.9 µM (active)
GI50 [54]: 67.8 nM (active)
GI50 [19]: 0.0395 µM (active)
GI50 [20]: 0.0638 µM (active)
GI50 [21]: 0.0196 µM (active)
GI50 [55]: 1.94 µM (inactive)
GI50 [23]: 0.0461 µM (active)
GI50 [24]: 0.0201 µM (active)
GI50 [25]: 0.0476 µM (active)
GI50 [26]: 0.0514 µM (active)
GI50 [27]: 0.0361 µM (active)
GI50 [28]: 0.0415 µM (active)
GI50 [56]: 0.0212 µM (active)
GI50 [29]: 0.0218 µM (active)
GI50 [30]: 0.153 µM (active)
GI50 [31]: 0.0719 µM (active)
GI50 [32]: 0.64 µM (active)
GI50 [33]: 0.0746 µM (active)
GI50 [34]: 0.0518 µM (active)
GI50 [35]: 0.0313 µM (active)
GI50 [57]: 18.8 nM (active)
GI50 [36]: 0.0586 µM (active)
GI50 [37]: 0.0359 µM (active)
GI50 [38]: 0.0845 µM (active)
GI50 [39]: 0.0446 µM (active)
GI50 [40]: 0.0356 µM (active)
GI50 [41]: 0.0655 µM (active)
GI50 [42]: 0.0321 µM (active)
GI50 [58]: 0.0403 µM (active)
GI50 [59]: 0.0237 µM (active)
GI50 [43]: 0.052 µM (active)
GI50 [44]: 0.0501 µM (active)
GI50 [45]: 0.0406 µM (active)
GI50 [46]: 0.0206 µM (active)
GI50 [47]: 0.0498 µM (active)
GI50 [48]: 0.0755 µM (active)
GI50 [49]: 0.0381 µM
GI50 [50]: 0.0446 µM (active)
GI50 [51]: 0.0389 µM (active)
GI50 [52]: < 0.012 µM (active)

CC(C)(C)C1CCC2c3c([nH]c4ccccc34)C3C(=O)N(c4cc(Cl)ccc4Cl)C(=O)C3C2C1 (stereo unspecified)
GI50 [1]: 5.85 µM (inactive)
GI50 [2]: > 100 µM (inactive)
GI50 [3]: > 100 µM (inactive)
GI50 [53]: > 100 µM (inactive)
GI50 [4]: > 100 µM (inactive)
GI50 [5]: > 100 µM (inactive)
GI50 [6]: > 100 µM (inactive)
GI50 [8]: > 100 µM (inactive)
GI50 [9]: > 100 µM (inactive)
GI50 [10]: > 100 µM (inactive)
GI50 [11]: > 10 µM (inactive)
GI50 [12]: > 100 µM (inactive)
GI50 [13]: > 100 µM (inactive)
GI50 [14]: > 100 µM (inactive)
GI50 [15]: > 100 µM (inactive)
GI50 [17]: > 100 µM (inactive)
GI50 [18]: 65.8 µM (inactive)
GI50 [19]: > 100 µM (inactive)
GI50 [20]: 52.6 µM (inactive)
GI50 [21]: > 100 µM (inactive)
GI50 [55]: > 100 µM (inactive)
GI50 [23]: > 100 µM (inactive)
GI50 [24]: > 100 µM (inactive)
GI50 [25]: > 100 µM (inactive)
GI50 [26]: > 100 µM (inactive)
GI50 [27]: > 100 µM (inactive)
GI50 [28]: > 100 µM (inactive)
GI50 [56]: > 10 µM (inactive)
GI50 [30]: > 100 µM (inactive)
GI50 [31]: > 100 µM (inactive)
GI50 [33]: > 100 µM (inactive)
GI50 [34]: 38.8 µM (inactive)
GI50 [35]: > 100 µM (inactive)
GI50 [36]: > 100 µM (inactive)
GI50 [37]: > 100 µM (inactive)
GI50 [38]: 25.9 µM (inactive)
GI50 [39]: > 100 µM (inactive)
GI50 [40]: > 100 µM (inactive)
GI50 [41]: > 100 µM (inactive)
GI50 [42]: > 100 µM (inactive)
GI50 [58]: > 100 µM (inactive)
GI50 [59]: 45.5 µM (inactive)
GI50 [43]: > 100 µM (inactive)
GI50 [44]: > 100 µM (inactive)
GI50 [45]: > 100 µM (inactive)
GI50 [46]: > 100 µM (inactive)
GI50 [47]: > 100 µM (inactive)
GI50 [48]: > 100 µM (inactive)
GI50 [49]: > 100 µM
GI50 [50]: > 100 µM (inactive)
GI50 [51]: > 10 µM (inactive)
GI50 [52]: > 100 µM (inactive)
